# Assay results published in patent US20250075176A1, “COMPOSITIONS COMPRISING HISTONE […] INHIBITORS OR REVERSE TRANSCRIPTASE INHIBITORS AND USE THEREOF” (FOREVE LABS LTD., priority 2022, published 2025).
# How the values were obtained:
# [1] = test system: young mouse oocytes; assay: In vitro maturation of young mouse oocytes treated with epigenetic drugs; type: cell-based; details: 2-month-old oocytes, Chaetocin 0.5 μM 18 h, FIG. 7A
# Text: (§1) Mouse oocyte in vitro maturation: After Euthanasia, ovaries were collected and dissected in L-15 medium (011151A) and supplemented with 200 um IBMX (17018) to prevent meiotic progression. Prophase I arrested oocytes were identified by visualization of the typical germinal vesicle and collected under a binocular using a Stripper (MD-MXL3-STR-CGR). After collection, oocytes were transferred into a-MEM medium (22561021) supplemented with IBMX covered with Mineral oil (M8410-11) to prevent evaporation, for recovery time of 25 min at 37° in a 5% CO2 incubator, and then washed in IBMX free a-MEM medium to initiate meiosis. The oocytes were incubated in a-MEM under oil in the incubator for 6 hours for prophase I or incubated for 19 hours for metaphase II. To assess maturation rates, oocytes were incubated for 19 hours after release and then fixed and stained by Hoechst to examine the entry into the second meiotic division. See below amendments for drug treatments.
# (§2) Drug treatments: Ovaries were collected and dissected in L-15 medium supplemented with 200 um IBMX to prevent meiotic progression as described above. Prophase I arrested oocytes were collected using a Stripper as described above. […]
# [2] = test system: old mouse oocytes; assay: In vitro maturation of old mouse oocytes in medium supplemented with drug; type: cell-based; details: for ability to induce maturation (first polar body extrusion and proper chromosome division): IVM media (a-MEM) with inhibitor, 24 hours, curcumin positive control, FIG. 9C-9D
# Text: as §1
# Drug treatments: Ovaries were collected and dissected in L-15 medium supplemented with 200 um IBMX to prevent meiotic progression as described above. Prophase I arrested oocytes were collected using a Stripper as described above. After collection, oocytes were transferred to a-MEM medium supplemented with IBMX +the desired drug covered with Mineral oil to prevent evaporation, for 4 hours at 37° in a 5% CO2 incubator (Since Chaetocin and IBMX have a cross reactivity with each other, the pause was not performed in Chaetocin experiments). After the pause, oocytes were washed in IBMX-free a-MEM that contains the drug to initiate meiosis. 19 hours after oocytes were released from IBMX, oocytes were fixed in PFA, permeabilized, and sealed as described above. Chaetocin is a hazarzous substance. For biosafety reasons, Chaetocin supplemented plates and matched controls were placed in a sealed chamber during incubation time.
# It was next tested if similar results could be achieved without genetic manipulation. Old oocytes were treated with two different naturally occurring histone acetyltransferase (HAT) inhibitors: curcumin and garcinol. As a negative control, oocytes were given vehicle only. […] Next, a broader panel of naturally occurring HAT inhibitors were tested along with another reverse transcriptase (RT) inhibitor (FIG. 9C). As before, old oocytes were incubated in IVM media (a-MEM) supplemented with the inhibitors for 24 hours and maturation was measured. Oocytes with both first polar body extrusion and proper division of chromosomes (as evaluated by Hoechst staining) were considered as mature. Curcumin was used as a positive control.
# [3] = test system: human oocytes; assay: Human oocyte IVM with HAT or RT inhibitor supplementation; type: cell-based; details: oocytes from young fertility preservation patients, Sage medium with LH and FSH, FIG. 11
# Description: Human IVM protocol: Germinal vesicle (GV) oocytes were subjected to IVM in a Sage medium (A1-rad Medical) supplemented with 0.075 IU/mL luteinizing hormone (LH) and 0.075 IU/mL follicle stimulating hormone (FSH) overnight. HAT and/or RT inhibitors were added to the overnight culture in some experiments. All naked oocytes that were found were transferred for up to 48 hours of incubation in oocyte maturation medium (Sage In-Vitro Fertilization) supplemented with 0.075 IU/mL human menopausal gonadotropin (hMG) (Menopur, Ferring Pharmaceuticals). HAT and/or RT inhibitors were added to the 48-hour culture in some experiments. After 24 hours of incubation, the media was searched for mature oocytes that were immediately frozen. The media were then incubated for another 24 hours and searched again for other mature oocytes.
# To also look at non-arrested human oocytes, we investigated the behavior of another cohort of human oocytes extracted from patients undergoing gonadotoxic treatment and therefore undergoing fertility preservation. In these cases, when hormonal induction and oocyte extraction are not possible due to the young age of the patient or social reasons, ovary surgical extraction is performed. After extraction, ovaries are dissected in medium in the IVF lab, and ovary tissue is cryopreserved. After remission, ovary tissue can be transplanted, and IVF performed. […]
# [4] = biological target: PCAF (Homo sapiens, UniProt Q92831); details: cited from earlier work
# Sequence of PCAF (Q92831 whole entry, species assumed): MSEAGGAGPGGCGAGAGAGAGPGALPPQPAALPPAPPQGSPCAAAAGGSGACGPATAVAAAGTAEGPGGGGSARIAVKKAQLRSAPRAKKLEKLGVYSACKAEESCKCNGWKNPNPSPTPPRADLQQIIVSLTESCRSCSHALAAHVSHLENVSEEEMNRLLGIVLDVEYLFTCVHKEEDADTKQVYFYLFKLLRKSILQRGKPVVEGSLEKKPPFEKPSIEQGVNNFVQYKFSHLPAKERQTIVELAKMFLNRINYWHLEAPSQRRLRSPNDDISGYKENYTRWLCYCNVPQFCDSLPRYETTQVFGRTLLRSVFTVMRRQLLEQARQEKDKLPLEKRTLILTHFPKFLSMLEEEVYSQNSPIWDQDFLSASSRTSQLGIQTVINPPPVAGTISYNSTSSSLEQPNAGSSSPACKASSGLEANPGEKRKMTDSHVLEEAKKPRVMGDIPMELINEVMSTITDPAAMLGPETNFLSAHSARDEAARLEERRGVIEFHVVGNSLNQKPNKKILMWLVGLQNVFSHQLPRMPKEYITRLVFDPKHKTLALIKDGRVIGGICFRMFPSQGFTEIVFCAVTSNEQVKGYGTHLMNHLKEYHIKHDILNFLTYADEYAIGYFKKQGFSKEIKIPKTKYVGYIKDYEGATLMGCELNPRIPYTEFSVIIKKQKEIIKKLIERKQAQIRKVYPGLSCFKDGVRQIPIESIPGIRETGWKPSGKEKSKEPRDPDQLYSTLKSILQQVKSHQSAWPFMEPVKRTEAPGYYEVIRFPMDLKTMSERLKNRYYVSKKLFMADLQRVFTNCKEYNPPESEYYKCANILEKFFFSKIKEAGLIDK
# [5] = Acidity of the molecule and effect on medium pH; type: physicochemical
# Text: The pH of the medium used was around 7.3 with buffering capacity between 6.9 and 7.6. […] This acidity interfered with maturation and indeed in the case of the two strongly acidic molecules inhibited it. Medium with a greater buffering capacity or a different concentration of these acidic molecules will allow for HAT inhibition induced maturation improvement.
# [6] = test system: older oocytes; details: aged animals, previously shown; cited from earlier work
# [7] = test system: H3K9me2; assay: In situ staining intensity for H3K9me2 (heterochromatin) in old oocytes; type: cell-based, mouse; details: aged oocytes cultured with SRT-1720, FIG. 8G
# Description: Mouse oocytes collection for in situ immunofluorescence: After Euthanasia, ovaries were collected and dissected in M2 medium (M7167). Oocytes were collected from pool of 3 animals at least (numbers of each experiment are noted in legend). Prophase I arrested oocytes were collected under a binocular using a Stripper and washed in hyaluronidase (H4272-30 MG) to remove granulosa cells and acidic Tyrode's Solution (T1788) to remove the Zona Pellucida. The oocytes were fixed using PFA 4% (15710) for 20 min, and then quenched in PBS supplemented with 10 mM glycine and 1% BSA.
# (§3) In situ immunofluorescence: Permeabilization was performed using 0.1% Triton X-100. Cells were cultured in PBS contains 5% BSA for blocking, and first and secondary antibodies were diluted in 0.1 Tween 20 (P9416)/PBS containing 5% BSA. The immune-stained cells were mounted in Vectashield (H-1000) mounting medium containing 80 nM of Hoechst (33342) and sealed on a slide using an Imaging spacer (GBL654002).
# Imaging and quantification: Oocytes were imaged using the Ti-Eclipse Nikon system, with an Andor Zyla nsc05537 camera. […] Every cell was imaged at multiple planes. In order to analyze the images in a quantitatively, a projection of maximum intensity was created. To measure staining intensity, every assessed region was normalized to an equal-size region in the background (outside the area of interest). […]
# [8] = test system: H3K9me2; assay: H3K9me2 staining in treated young oocytes; type: cell-based, mouse; details: TSA 100 nm, 4 h arrest then 18 h until MII
# Description: Chromosome spread and immunofluorescence: Prophase I arrested oocytes were collected from ovaries as above and incubated for 6 hours to reach the first prophase or for 17 hours to reach second meiosis prophase as described above. Matured oocytes were washed in M2 medium and then in acidic Tyrode's Solution to remove the Zona Pellucida. 15 min before the desired time for chromosome spread, oocytes were kept in hypotonic solution, composed of FBS (F7524) diluted in DDW in 1:1 ratio. Oocytes were then spread in spreading solution (1% PFA buffered to 9.2 pH, supplemented with 0.15% Triton X-100and 0.03% […]) on Superfrost plus slides (32090003). To assess ploidy, prophase II spreads were stained with Hoechst to visualize chromatin and CREST to visualize the centromeres, and the imaged chromosome were manually counted.
# In situ immunofluorescence: Permeabilization was performed using 0.1% Triton X-100. […]
# Imaging and quantification: Oocytes were imaged using the Ti-Eclipse Nikon system, with an Andor Zyla nsc05537 camera. […] In order to analyze the images in a quantitatively, a projection of maximum intensity was created. To measure staining intensity, every assessed region was normalized to an equal-size region in the background (outside the area of interest). […]
# [9] = test system: H3K4me3; assay: In situ staining for H3K4me3 in treated young oocytes; type: cell-based, mouse; details: TSA 100 nm
# Description: as §3
# (§4) Imaging and quantification: Oocytes were imaged using the Ti-Eclipse Nikon system, with an Andor Zyla nsc05537 camera. […] Every cell was imaged at multiple planes. In order to analyze the images in a quantitatively, a projection of maximum intensity was created. To measure staining intensity, every assessed region was normalized to an equal-size region in the background (outside the area of interest). The intensity score was generated by dividing the intensity in the area of interest by that of the background.
# as §2
# [10] = test system: L1-encoded ORF1p; assay: In situ immunofluorescence for L1-ORF1p in treated young oocytes; type: cell-based, mouse; details: TSA 100 nm
# Description: as §3, §4, §2
# [11] = test system: H3K27Ac; assay: In situ staining for H3K27Ac in treated young oocytes; type: cell-based, mouse; details: TSA 100 nm, 4 h arrest then 18 h until MII
# Description: as §3, §4, §2
# [12] = test system: Rad51; assay: Rad51 nuclear localization (DNA damage response) in treated young oocytes; type: cell-based, mouse; details: TSA 100 nm
# Description: as §3, §4, §2
smiles,measurement,setting,value
CN1C(=O)[C@@]23C[C@]4([C@]56C[C@@]78SS[C@@](CO)(C(=O)N7[C@H]5Nc5ccccc56)N(C)C8=O)c5ccccc5N[C@@H]4N2C(=O)[C@]1(CO)SS3 [Chaetocin],reduction in oocytes that properly mature,[1],18%
COc1cc(/C=C/C(=O)CC(=O)/C=C/c2ccc(O)c(OC)c2)ccc1O [Curcumin],maturation rate at the highest dose,"[2]; old oocytes, curcumin 10 um, FIG. 9A",over 80%
same,maturation rate versus vehicle,"[2]; old oocytes, vehicle-only negative control, FIG. 9A-9B",dose dependent increase
same,maturation ability of human oocytes,[3],did not impair their maturation ability and even increased it
same,PCAF inhibition,[4],do not
"O=C(O[C@@H]1Cc2c(O)cc(O)cc2O[C@@H]1c1cc(O)c(O)c(O)c1)c1cc(O)c(O)c(O)c1 [EGCG, Epigallocatechin gallate]",ability to induce maturation (first polar body extrusion and proper chromosome division),[2]; old oocytes,did not produce increased maturation
same,acidity,[5],more weakly acidic
"NC(=O)c1ccc[n+]([C@@H]2O[C@H](COP(=O)([O-])OP(=O)(O)OC[C@H]3O[C@@H](n4cnc5c(N)ncnc54)[C@H](O)[C@@H]3O)[C@@H](O)[C@H]2O)c1 [NAD+, nicotinamide adenine dinucleotide]",oocyte quality,[6],rejuvenated oocyte quality
CC1=CC(=O)c2c(O)cccc2C1=O [Plumbagin],ability to induce maturation (first polar body extrusion and proper chromosome division),[2]; old oocytes,comparable to curcumin
same,PCAF inhibition,[4],do not
O=C(Nc1ccccc1-c1cn2c(CN3CCNCC3)csc2n1)c1cnc2ccccc2n1 [SRT-1720],maturation ability of treated cells,"[2]; aged oocytes cultured with SRT-1720, FIG. 8H",recovered maturation ability
same,heterochromatin (H3K9me2 staining intensity),[7],heterochromatin elevation
"CC(/C=C/C(=O)NO)=C\[C@@H](C)C(=O)c1ccc(N(C)C)cc1 [TSA, Trichostatin A]",H3K9me2 in situ staining,[8],decrease
same,staining for H3K4me3,[9],unchanged
same,L1-ORF1p localization,[10],accumulates in nuclei
same,L1-encoded ORF1p overall signal level,[10],do not show a L1-encoded ORF1p elevation
same,H3K27Ac in situ staining,[11],increase
same,DNA damage response (Rad51 nuclear localization),[12],elevated
CCCCCCCCCCCCCCCc1cccc(O)c1C(=O)O [anacardic acid],ability to induce maturation (first polar body extrusion and proper chromosome division),[2]; old oocytes,did not produce increased maturation
same,acidity,[5],highly acidic
same,PCAF inhibition,[4],strongly inhibit
CC(C)=CCC[C@]1(C)C=Cc2c(O)c3c(c(CC=C(C)C)c2O1)O[C@]12C(=C[C@@H]4C[C@H]1C(C)(C)O[C@@]2(C/C=C(/C)C(=O)O)C4=O)C3=O [gambogic acid],ability to induce maturation (first polar body extrusion and proper chromosome division),[2]; old oocytes,did not produce increased maturation
same,acidity,[5],highly acidic
same,PCAF inhibition,[4],strongly inhibit
